In PubChem BioAssay AID1918954 (Molecular Pharmacology Branch, DTP, NCI, 2023):

Tested on: MDA-MB-468 complex spheroids with HUVEC/MSC, viability
Assay: Anticancer human tumor MDA-MB-468 cell line growth inhibition;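 further: spheroids exposed to agents for seven days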;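 on viability, T/C: 100% = DMSO vehicle control viability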
Details: for IC50: curve of first compound; for viability, T/C: stronger effect = lower value; active means viability on the fitted dose curve at most 10% of control; inactive means the rest
Summary of the method: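 Drug combinations with the LSD1 inhibitor iadademstat tested on tumor cells co-cultured as spheroids with endothelial cells and mesenchymal stem cells. Concentrations descended in half-log increments from clinical Cmax or 10 microM.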

[1] = second compound 0.1 µM, first compound 0.000316 µM
[2] = second compound 0.1 µM, first compound 0.001 µM
[3] = second compound 0.1 µM, first compound 0.00316 µM
[4] = second compound 0.1 µM, first compound 0.01 µM
[5] = second compound 0.1 µM, first compound 0.0316 µM
[6] = second compound 0.1 µM, first compound 0.1 µM
[7] = second compound 0.316 µM, first compound 0.000316 µM
[8] = second compound 0.316 µM, first compound 0.001 µM
[9] = second compound 0.316 µM, first compound 0.00316 µM
[10] = second compound 0.316 µM, first compound 0.01 µM
[11] = second compound 0.316 µM, first compound 0.0316 µM
[12] = second compound 0.316 µM, first compound 0.1 µM
[13] = second compound 1 µM, first compound 0.000316 µM
[14] = second compound 1 µM, first compound 0.001 µM
[15] = second compound 1 µM, first compound 0.00316 µM
[16] = second compound 1 µM, first compound 0.01 µM
[17] = second compound 1 µM, first compound 0.0316 µM
[18] = second compound 1 µM, first compound 0.1 µM
[19] = second compound 3.16 µM, first compound 0.000316 µM
[20] = second compound 3.16 µM, first compound 0.001 µM
[21] = second compound 3.16 µM, first compound 0.00316 µM
[22] = second compound 3.16 µM, first compound 0.01 µM
[23] = second compound 3.16 µM, first compound 0.0316 µM
[24] = second compound 3.16 µM, first compound 0.1 µM
[25] = second compound 10 µM, first compound 0.000316 µM
[26] = second compound 10 µM, first compound 0.001 µM
[27] = second compound 10 µM, first compound 0.00316 µM
[28] = second compound 10 µM, first compound 0.01 µM
[29] = second compound 10 µM, first compound 0.0316 µM
[30] = second compound 10 µM, first compound 0.1 µM

CC(C)CC(NC(=O)C(Cc1ccccc1)NC(=O)c1cnccn1)B(O)O (stereo not given) + NC1CC1c1ccc(-c2cccc(O)c2)cc1
active: viability, T/C [1] 5.95% | viability, T/C [2] 0.09% | viability, T/C [3] 0.06% | viability, T/C [4] 0.05% | viability, T/C [5] 0.08% | viability, T/C [6] 0.18% | viability, T/C [7] 6.43% | viability, T/C [8] 0.09% | viability, T/C [9] 0.05% | viability, T/C [10] 0.07% | viability, T/C [11] 0.08% | viability, T/C [12] 0.17% | viability, T/C [13] 5.88% | viability, T/C [14] 0.08% | viability, T/C [15] 0.05% | viability, T/C [16] 0.04% | viability, T/C [17] 0.06% | viability, T/C [18] 0.17% | viability, T/C [19] 5.66% | viability, T/C [20] 0.06% | viability, T/C [21] 0.07% | viability, T/C [22] 0.04% | viability, T/C [23] 0.14% | viability, T/C [24] 0.15% | viability, T/C [25] 3.55% | viability, T/C [26] 0.16% | viability, T/C [27] 0.12% | viability, T/C [28] 0.12% | viability, T/C [29] 0.14% | viability, T/C [30] 0.2%
< 0.316 nM: IC50 (second compound 0.1 µM) | IC50 (second compound 0.316 µM) | IC50 (second compound 1 µM) | IC50 (second compound 3.16 µM) | IC50 (second compound 10 µM)

CC(C)CC(NC(=O)CNC(=O)c1cc(Cl)ccc1Cl)B1OC(=O)CC(CC(=O)O)(C(=O)O)O1 (stereo not given) + NC1CC1c1ccc(-c2cccc(O)c2)cc1
2.49 nM: IC50 (second compound 0.316 µM)
2.57 nM: IC50 (second compound 0.1 µM)
active: viability, T/C [4] 4.72% | viability, T/C [5] 0.18% | viability, T/C [6] 0.16% | viability, T/C [10] 5.32% | viability, T/C [11] 0.16% | viability, T/C [12] 0.15% | viability, T/C [16] 5.14% | viability, T/C [17] 0.2% | viability, T/C [18] 0.14% | viability, T/C [22] 5.19% | viability, T/C [23] 0.17% | viability, T/C [24] 0.14% | viability, T/C [28] 4% | viability, T/C [29] 0.22% | viability, T/C [30] 0.24%
2.32 nM: IC50 (second compound 3.16 µM)
1.54 nM: IC50 (second compound 10 µM)
inactive: viability, T/C [1] 111% | viability, T/C [2] 106% | viability, T/C [3] 37.6% | viability, T/C [7] 118% | viability, T/C [8] 94.2% | viability, T/C [9] 39% | viability, T/C [13] 105% | viability, T/C [14] 109% | viability, T/C [15] 41.8% | viability, T/C [19] 106% | viability, T/C [20] 100% | viability, T/C [21] 31.4% | viability, T/C [25] 71.4% | viability, T/C [26] 62.5% | viability, T/C [27] 28.9%
2.74 nM: IC50 (second compound 1 µM)

COc1cc(Nc2ncc3c(n2)-c2ccc(Cl)cc2C(c2c(F)cccc2OC)=NC3)ccc1C(=O)O + NC1CC1c1ccc(-c2cccc(O)c2)cc1
inactive: viability, T/C [3] 15.5% | viability, T/C [9] 14.5% | viability, T/C [15] 14.1% | viability, T/C [21] 14.1% | viability, T/C [27] 12.6%
< 3.16 nM: IC50 (second compound 0.1 µM) | IC50 (second compound 0.316 µM) | IC50 (second compound 1 µM) | IC50 (second compound 3.16 µM) | IC50 (second compound 10 µM)
active: viability, T/C [4] 6.89% | viability, T/C [5] 6.01% | viability, T/C [6] 4.91% | viability, T/C (second compound 0.1 µM, first compound 0.316 µM) 3.38% | viability, T/C (second compound 0.1 µM, first compound 1 µM) 2.48% | viability, T/C [10] 6.72% | viability, T/C [11] 5.86% | viability, T/C [12] 5.06% | viability, T/C (second compound 0.316 µM, first compound 0.316 µM) 3.01% | viability, T/C (second compound 0.316 µM, first compound 1 µM) 2.59% | viability, T/C [16] 7.25% | viability, T/C [17] 5% | viability, T/C [18] 4.96% | viability, T/C (second compound 1 µM, first compound 0.316 µM) 2.88% | viability, T/C (second compound 1 µM, first compound 1 µM) 1.8% | viability, T/C [22] 8% | viability, T/C [23] 5.68% | viability, T/C [24] 5.16% | viability, T/C (second compound 3.16 µM, first compound 0.316 µM) 3.35% | viability, T/C (second compound 3.16 µM, first compound 1 µM) 2.58% | viability, T/C [28] 7.29% | viability, T/C [29] 6.71% | viability, T/C [30] 5.57% | viability, T/C (second compound 10 µM, first compound 0.316 µM) 3.87% | viability, T/C (second compound 10 µM, first compound 1 µM) 4.35%
